The source of these data is paper PMC12293736, “Discovery of N-(6-Methoxypyridin-3-yl)quinoline-2-amine Derivatives for Imaging Aggregated α-Synuclein in Parkinson’s Disease with Positron Emission Tomography” (Cells, 2025).

The target in one series is T1, PD brain tissues (Homo sapiens, UniProt P37840).
T1 construct: The brain tissue from PD and AD cases was obtained from the Banner Sun Health Research Institute Brain and Body Donation Program; tissue Banner Sun Health Research Institute Brain and Body Donation Program; host or cells: human PD post mortem brain tissue
The series can be described thus: homologous competitive binding assay of radiotracers, PD tissue. The note with it: for binding to PD tissues versus AD and control brain tissues: in words. The method, then:
(§1) The binding affinity determination (Kd) was performed using homologous competitive binding assays of radiotracers with recombinant α-synuclein fibrils, LBD-amplified fibrils, PD tissues, and AD brain tissue homogenates. The brain tissue from PD and AD cases was obtained from the Banner Sun Health Research Institute Brain and Body Donation Program of Sun City, Arizona.
(§2) These direct binding assays used a fixed concentration of either recombinant α-synuclein fibrils, LBD-amplified fibrils, PD, AD tissue, or a radioligand ([^11C]7f, [^18F]7j, [^11C]8i and [^125I]8i, [^3H]8i) and varying concentration ranges of the corresponding homologous non-radiolabeled standard reference compound. In brief, various concentrations of corresponding cold compounds were diluted in 30 mM of Tris-HCl at pH 7.4, with 0.1% BSA. The direct binding assay was carried out by mixing (1) recombinant α-synuclein fibrils, LBD-amplified fibrils, PD, or AD tissue; (2) a radioligand ([^11C]7f or [^18F]7j); and (3) various concentrations of corresponding cold compounds, with incubation at 37 °C for 1 h for [^18F]7j and 30 min for [^11C]7f. After incubation, the bound and free radioligands were separated via vacuum filtration through 1.0 µm glass fiber filters in 96-well filter plates (MilliporeSigma, Burlington, MA, USA), followed by three 200 µL washes with ice-cold assay buffer. The filters containing the bound ligand were mixed with 150 µL of Optiphase Supermix scintillation cocktail (PerkinElmer) and counted immediately. All data points were obtained in triplicate. The dissociation constant (Kd) and the maximal number of binding site (Bmax) values were determined by fitting the data to the following equation: bound = (Bmax × [radioligand])/([radioligand] + [unlabeled compound] + Kd) + bottom. This was achieving via non-linear regression using GraphPad Prism software (version 4.0), where (bottom) is the non-specific binding and the [radioligand], [unlabeled compound], and Kd are expressed in nM. The synthesis of the tested compounds is described in the Supporting Information. […]
(§3) c) Direct radioactive competitive binding assay of radiotracers [11C]7f, [ 18 F]7j, [ 11C]8i and [ 125 I]8i and [ 3H]8i Affinity determination (Kd) using direct radioactive competitive binding assay with recombinant α-synuclein fibrils, Banner PD tissues, AD brain tissue homogenates. Brain tissue from PD and AD cases was obtained from the Banner Sun Health Research Institute Brain and Body Donation Program of Sun City, Arizona. […]
(§4) These direct binding assays used a fixed concentration of either α-synuclein fibrils or AD tissue and the radioligand ([11C]7f, [ 18F]7j, [ 11C]8i and [ 125 I]8i, [ 3H]8i ) and varying concentration ranges of corresponding homologous non-radiolabeled standard reference compound. In brief, the standard homologous reference compound was diluted in 30 mM Tris-HCl pH 7.4, 0.1% BSA. Reactions were incubated at 37 °C for 1 h before quantifying bound radioligand.
Bound and free radioligands were separated by vacuum filtration through 1.0 µm glass fiber filters in 96-well filter plates (Millipore), followed by three 200 µL washes with ice-cold assay buffer. Filtrates containing the bound ligand were mixed with 150 µL of Optiphase Supermix scintillation cocktail (PerkinElmer) and counted immediately. All data points were performed in triplicate. The dissociation constant (Kd) and the maximal number of binding sites (Bmax) values were determined by fitting the data to the equation. Bound = (Bmax*[Radioligand])/([Radioligand] + [Unlabeled compound] + Kd) + Bottom by nonlinear regression using GraphPad Prism software (version 4.0), where (Bottom) is nonspecific binding and [Radioligand], [Unlabeled compound], and Kd is expressed in nM […]
Production of [ 11C]CH3I followed the reported method. Briefly, [ 11C]CH3I was produced on-site from [ 11C]CO2 using a GE PETtrace MeI Microlab. Up to 1.4 Ci of [ 11C]carbon dioxide was produced from the JSW BC-16/8 cyclotron […]

The nature of series [1]: PET brain imaging studies in non-human primates. Type of series: in vivo, cynomolgus macaques. The note with it: for blood–brain barrier penetration / brain washout kinetics: in words. On the procedure:
All animal experiments were conducted under a research protocol approved by the Washington University Institutional Animal Care and Use Committee (IACUC). The NHP study was conducted in the NHP microPET facility at the Washington University School of Medicine in St. Louis. Three adults male cynomolgus macaques (9.73 ± 0.71 kg) were used in this study. Each animal was fasted for 12 h prior to the PET scans. Anesthesia was induced with an intramuscular injection of ketamine (10–20 mg kg^−1) and glycopyrrolate (0.013–0.017 mg kg^−1) to reduce salivary gland and respiration secretions. The animal was intubated, and anesthesia was maintained at 40–50% N2O and 1.4–2.0% isoflurane/oxygen throughout the procedure. A percutaneous venous catheter was used for the radiotracer injection. During the PET scanning session, the head was positioned supine with the brain in the center of the field of view. The PET scans were performed with a microPET Focus 220 scanner (Concorde/CTI/Siemens Microsystems, Knoxville, TN, USA). A 10 min transmission scan was performed to check the positioning; once confirmed, a 45 min transmission scan was obtained for attenuation correction. Subsequently, a 2 h dynamic emission scan was acquired after the administration of 365.44 ± 26.69 MBq of [^11C]7f, [^11C]8i, or [^18F]7j via the venous catheter. The PET data were collected from 0 to 120 min with the following timeframes: 3 × 1 min, 4 × 2 min, 3 × 3 min, and […]. The PET images were reconstructed using a filtered back projection method into a volume size of 128 × 128 × 95 and a voxel size of 1.85 × 1.85 × 0.796 mm^3, with all corrections (scatter, decay, random, normalization, etc.) applied. The dynamic PET images were motion-corrected and then co-registered to previous acquired structural MPRAGE MR images. The INIA19 primate brain and atlas (https://www.nitrc.org/projects/inia19/, accessed on 2 August 2023) were then co-registered to the MR images, so as to obtain the regional time−activity curves (TACs) in the regions of interests (ROIs). The radioactivity uptake was normalized using the body weight and the injected dose to obtain the standardized uptake values (SUVs). A voxel-wise reference Logan plot was performed using the cerebellum as the reference region to obtain the distribution volume ratio (DVR), with a linear time range of 30 min to 120 min:(1) ∫0t Ctτdτ/Ctt=DVR∫0t Crτdτ/Ctt+β
Here, Cr(t) is the regional time activity curve (TAC) of the reference tissue, Ct(t) is the pixelwise time activity curves of the target tissue tracer concentration measured via PET, and DVR is the distribution volume ratio of the target to the reference tissue.
The image processing was performed using MIAKAT in MATLAB (R2023a, The MathWorks, Inc., Natick, MA, USA).

In series [2] the target is T2, recombinant α-synuclein fibrils (Homo sapiens, UniProt P37840). The series can be described thus: radioactive competitive binding assay with [^3H]BF2846 (Tables 1 and 2: or [^18F]7j with LBD-amplified fibrils). The note with it: running text b71; fibril type and assay not stated.
Series [3] deals with T2, recombinant α-synuclein fibrils. In words: photo-crosslinking of α-synuclein fibrils, digestion and LC-MS/MS. The note with it: UV irradiation, GluC or trypsin digest. The source says: To gain additional insight into the binding site of these molecules, a photoaffinity variant (TZ-CLX) was synthesized containing a diazirine as a photo-crosslinking motif. Closely resembling the 6-substituted lead compounds 7j and 8i, this compound covalently inserts into C-H bonds on nearby residues in the α-synuclein fibril binding site upon irradiation with ultraviolet (UV) light. Using established procedures, the crosslinked fibrils can then be disaggregated, digested using either GluC or trypsin, and analyzed via LC-MS/MS to ascertain residue-level binding information. […] Minor crosslinks were also identified in the N-terminal binding site, primarily via trypsin digestion and corresponding to the peptide EGVVAAAEK (residues 13–21, proximal to site 2, Figure 3). […]
Bottom-up LC-MS/MS Analysis. Peptide mixtures resulting from labeling and digestion were resolubilized in 25 µl of water with 0.1%TFA and analyzed by a Q-Exactive HF mass spectromet er (Thermo Fisher Scientific; Waltham, MA) coupled to a Dionex Ultimate 3000 UHPLC system (Thermo Fisher Scientific; Waltham, MA) equipped with an in- house made 15 ௗcm long fused silica capillary column (75 μm ID), packed with reversed phase Repro-Sil Pure C18-AQ 2.4 μm resin (Dr. Maisch GmbH, Ammerbuch, Germany). […]

In series [4] the target is T3, LBD-amplified fibrils (α-synuclein) (Homo sapiens, UniProt P37840).
T3 construct: made in house
In words: homologous competitive binding assay of radiotracers, LBD-amplified fibrils. On the procedure: as §1, §2, §3, §4
Bound and free radioligands were separated by vacuum filtration through 1.0 µm glass fiber filters in 96-well filter plates (Millipore), followed by three 200 µL washes with ice-cold assay buffer. Filtrates containing the bound ligand were mixed with 150 µL of Optiphase Supermix scintillation cocktail (PerkinElmer) and counted immediately. All data points were performed in triplicate. The dissociation constant (Kd) and the maximal number of binding sites (Bmax) values were determined by fitting the data to the equation. […]

Series [5] deals with AD brain tissue homogenates. The series can be described thus: homologous competitive binding assay of radiotracers, AD tissue. The note with it: average, NB = no binding. The arrangement: species or system human. On the procedure: as §1
These direct binding assays used a fixed concentration of either recombinant α-synuclein fibrils, LBD-amplified fibrils, PD, AD tissue, or a radioligand ([^11C]7f, [^18F]7j, [^11C]8i and [^125I]8i, [^3H]8i) and varying concentration ranges of the corresponding homologous non-radiolabeled standard reference compound. […] The filters containing the bound ligand were mixed with 150 µL of Optiphase Supermix scintillation cocktail (PerkinElmer) and counted immediately. […] The dissociation constant (Kd) and the maximal number of binding site (Bmax) values were determined by fitting the data to the following equation: bound = (Bmax × [radioligand])/([radioligand] + [unlabeled compound] + Kd) + bottom. […]
Bound and free radioligands were separated by vacuum filtration through 1.0 µm glass fiber filters in 96-well filter plates (Millipore), followed by three 200 µL washes with ice-cold assay buffer. […] The dissociation constant (Kd) and the maximal number of binding sites (Bmax) values were determined by fitting the data to the equation. […]

The mark [6] stands for this setting: homologous competitive binding, average values for 7f (n = 3) and 7j (n = 15), read-out: Kd, LBD-amplified fibrils.
Where [7] appears, read: homologous competitive binding, average (n = 4 for 7j), NB = no binding, read-out: Kd, PD tissue.
Where [8] appears, read: Figure 5, single representative curve, read-out: Kd, LBD amplified fibrils, representative assay.

Where “and” joins values, the source holds several entries; their conditions need not be identical. Equal values may be shown once. Entries after “also recorded” stand apart in the source; their conditions may differ. Read-outs that look alike come from different tables or passages of the source.

Consider `[11CH3]Oc1ccc(Nc2ccc3cc(OC/C=C/I)ccc3n2)cn1` [[^11C]8i], for which the “binding to PD tissues versus AD and control brain tissues” value at PD brain tissues was “potent selectivity for PD brain tissues over AD and control tissues”. Moreover, the “initial brain uptake, standardized uptake value (SUV)” value in series [1] (3 min post-injection, n = 1 per tracer) is listed as “about 3 g/mL”. Also, in series [1], the “blood–brain barrier penetration” value is on record as “penetrated the BBB very well” and the brain washout kinetics result is given as “slow”. Also, in series [1] (washout kinetics, n = 1), the “brain uptake ratio from 3 min to 120 min” value is reported as “about 1.5”. Besides, the Kd in series [2] is 5 nM.
`C#CCCC1(CCOc2ccc3nc(Nc4ccc(OC)nc4)ccc3c2)N=N1` [TZ-CLX, 6-(2-(3-(But-3-yn-1-yl)-3H-diazirin-3-yl)ethoxy)-N-(6-methoxypyridin-3-yl)quinolin-2-amine]: the “binding site on α-synuclein fibrils by photo-crosslinking” value in series [3] is “significant selectivity for the C-terminal binding sites of α-synuclein fibrils”.
`COc1ccc(Nc2ccc3cc(OC/C=C/[125I])ccc3n2)cn1` [[^125I]8i]: the Kd is 5 nM and 4.8 nM in series [4] (setting [6]); 5 nM at PD brain tissues (setting [7]); 0.61 nM at PD brain tissues (two-site binding, read-out: Kd, high affinity binding site, PD tissues). In addition, at PD brain tissues, the “binding to PD tissues versus AD and control brain tissues” value was “selective for PD tissues versus AD or control tissues; also recorded: very potent for PD tissues but not for control and AD brain tissues”. In addition, on PD brain tissues (two-site binding), the “Bmax, high affinity binding site, PD tissues” value was 50 nM. Also, on PD brain tissues (two-site binding), the “Bmax, low affinity binding site, PD tissues” value was determined as 12 µM.
On to `COc1ccc(Nc2ccc3cc(O[11CH3])ccc3n2)cn1` [[^11C]7f], for which the dissociation constant (Kd) amounted to 11 nM in series [4] (setting [8]), 15.5 ± 4.8 nM in series [4] (setting [6]) and 62.7 ± 68.8 nM in series [5]. Moreover, the “blood–brain barrier penetration” value in series [1] is “penetrated the BBB well”. In series [1], the brain washout kinetics entry is reported as “rapid washout from all brain regions”. Also, the “time of peak brain uptake post-injection” value in series [1] (n = 1 per tracer) was determined as 3 min.
As to `COc1ccc(Nc2ccc3cc(OCC[18F])ccc3n2)cn1` [[^18F]7j], the Kd in series [4] (setting [8]) turned out to be 26 nM; in series [4] (setting [6]), 21 ± 8.7 nM; on PD brain tissues (Figure 5, single representative curve, read-out: Kd, PD tissue, representative assay), 3.6 nM; at PD brain tissues (setting [7]) it was 19.5 ± 15.5 nM. Also, the “Kd, AD tissue” value in series [5] is “no binding”. In series [1], the “blood–brain barrier penetration” value is “penetrated the BBB well”. For the same compound, the brain washout kinetics result in series [1] is on record as “rapid washout from all brain regions”. Moreover, the “time of peak brain uptake post-injection” value in series [1] (n = 1 per tracer) is listed as 3 min.
